Assay results: PMC2851491 (The Journal of infectious diseases, 2010)
pEC50, pIC50: −log10 of the molar value. Like-named read-outs stand apart in the source and are kept apart here.

Assays:
[1] = test system: Day 0 wild-type isolate (A/Bethesda/NIH12-0/2008); assay: microbe, parasite or virus in culture; format: cell-based, influenza A/H3N2 virus
[2] = test system: A/Wisconsin/67/2005 (H3N2); assay: microbe, parasite or virus in culture; format: cell-based, influenza A/H3N2 virus
[3] = test system: Day 0 wild-type isolate (A/Bethesda/NIH12-0/2008); format: cell-based, influenza A/H3N2 virus; details: read-out: Plaque Reduction Assay IC50 (95% CI)
[4] = test system: Day 8 isolate (deletion in NA of AA 245–248); format: cell-based, influenza A/H3N2 virus; details: read-out: High Throughput Assay EC50 (95% CI)
[5] = test system: Day 8 isolate (deletion in NA of AA 245–248); format: cell-based, influenza A/H3N2 virus; details: for pIC50: read-out: Plaque Reduction Assay IC50 (95% CI)
[6] = molecular target: NA of Day 0 wild-type isolate (A/Bethesda/NIH12-0/2008) (Influenza A virus, UniProt D3XBZ2); format: biochemical, influenza A/H3N2 virus; details: read-out: NA-inhibition Assay IC50 (95% CI)
[7] = molecular target: NA of Day 8 isolate (deletion in NA of AA 245–248) (Influenza A virus, UniProt D3XBZ2, DEL245-248); assay: biochemical; format: biochemical, influenza A/H3N2 virus
[8] = read-out: High Throughput Assay EC50 (95% CI)

Structure (SMILES) | pEC50 ([1]; Influenza A virus, in Homo sapiens, 0 h, read-out: High Throughput Assay EC50) | pEC50 ([2]; Influenza A virus, H3N2, read-out: High Throughput Assay EC50) | pEC50 [1, 8] | pEC50 [2, 8] | pIC50 [3] | pEC50 [4] | pIC50 [5] | pIC50 [6] | pIC50 [7] | fold increase in IC50, NA activity assay [7] | fold increase in IC50 / IC50/EC50, summary over drug sensitivity assays [7] | fold increase in IC50, plaque reduction assay [5]
NC12CC3CC(CC(C3)C1)C2 [Amantadine, amantadine] | < 3.70 | < 3.70 |  |  |  |  |  |  |  |  |  | 
CCOC(=O)C1=C[C@@H](OC(CC)CC)[C@H](NC(C)=O)[C@@H](N)C1 [Oseltamivir, oseltamivir] |  |  | 9.68 | 9.43 | 9.42 | 6.35 | 7.30 |  |  |  |  | 
CC(=O)N[C@H]1[C@H]([C@H](O)[C@H](O)CO)OC(C(=O)O)=C[C@@H]1N=C(N)N [Zanamivir, zanamivir] |  |  | 7.72 | 8.21 | 7.81 | 6.88 | 6.65 | 8.40 | 7.90 | 3 fold | 3 to 7 fold | 14 fold
